In publication PMC6222696, “Inhibition of UGT2B7 Enzyme Activity in Human and Rat Liver Microsomes by Herbal Constituents” (Molecules : A Journal of Synthetic Chemistry and Natural …, 2018):
“And” between values parts separate entries of the source, which are not always exact repeats. Equal entries are not always repeated. Where two headings read alike, the source gives them in different places.

Assays:
[1] = humans, cited from earlier work
[2] = rats, cited from earlier work
[3] = molecular target: T1, UGT2B7 (Homo sapiens, UniProt P16662); assay: in vitro; settings: HLM; for microsomal CLint: human liver microsomes, pH 7.4, CLint, Vmax/Km; for Km at 120 min: pH 7.4, Km, mean ± SD
T1 sequence (P16662 24-529): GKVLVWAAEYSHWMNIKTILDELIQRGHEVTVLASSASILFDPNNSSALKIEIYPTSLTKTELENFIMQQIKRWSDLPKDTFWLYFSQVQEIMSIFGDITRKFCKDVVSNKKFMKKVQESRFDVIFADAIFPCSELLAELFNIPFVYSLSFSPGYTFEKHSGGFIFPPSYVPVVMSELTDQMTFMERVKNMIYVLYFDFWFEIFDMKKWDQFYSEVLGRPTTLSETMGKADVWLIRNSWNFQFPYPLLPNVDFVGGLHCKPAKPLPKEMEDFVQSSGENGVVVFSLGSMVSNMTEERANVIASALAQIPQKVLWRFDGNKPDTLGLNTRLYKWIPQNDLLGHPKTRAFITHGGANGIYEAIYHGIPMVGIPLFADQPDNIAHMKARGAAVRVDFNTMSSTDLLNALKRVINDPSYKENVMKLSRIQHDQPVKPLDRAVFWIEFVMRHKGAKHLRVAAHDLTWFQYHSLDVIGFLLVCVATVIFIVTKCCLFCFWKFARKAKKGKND
Experimental: An incubation mixture in a total volume of 200 µL contained 100 mM Tris-HCl buffer at pH 7.4, 5 mM MgCl2, microsomal protein (0.2 mg/mL for HLM assay and 2 mg/mL for RLM assay) and 0.1 mg/mg protein of Brij58 was kept in ice for 10 min. […] The incubation volume was made up to 200 µL with distilled water in a 1.5 mL polypropylene microcentrifuge tube. After pre-incubation at 37 °C for 10 min in a shaking water bath, a reaction was started by the addition of 5 mM UDPGA and was further incubated (120 min for HLM and 90 min for RLM). […] The sample was allowed for protein precipitation on ice for 15 min, then vortexed shortly, and centrifuged at 15,000 rpm for 10 min at 4 °C. Supernatant was transferred into HPLC vials for HPLC analysis.
Once the initial velocity conditions had been established, the ZDV concentrations were varied to generate a saturation curve for determination of Michaelis constant (Km) and maximal velocity of reaction (Vmax) values of ZDV glucuronidation in HLM and RLM. The experiments were conducted in the absence and presence of BSA. Under optimized conditions, substrate concentrations used in incubation assay were varied from 0–5 mM of ZDV for HLM assay and 0–30 mM of ZDV for RLM assay. All assays were performed in triplicates (n = 3).
(§1) The ZDVG concentration formed was quantified using the calibration curve of ZDVG. Final UGT2B7 specific activity value was expressed in pmol/min/mg protein. […] Km and Vmax were determined using the same software under the enzyme-kinetic inhibition (substrate inhibition) model.

[4] = tested on: UGT2B7; assay: ZDV glucuronidation kinetics in RLM; settings: for Km at 90 min / microsomal CLint: rat; for Km at 90 min: pH 7.4, Km; for microsomal CLint: rat liver microsomes (pooled), pH 7.4, CLint, Vmax/Km
Experimental: (§2) An incubation mixture in a total volume of 200 µL contained 100 mM Tris-HCl buffer at pH 7.4, 5 mM MgCl2, microsomal protein (0.2 mg/mL for HLM assay and 2 mg/mL for RLM assay) and 0.1 mg/mg protein of Brij58 was kept in ice for 10 min. […] The incubation volume was made up to 200 µL with distilled water in a 1.5 mL polypropylene microcentrifuge tube. After pre-incubation at 37 °C for 10 min in a shaking water bath, a reaction was started by the addition of 5 mM UDPGA and was further incubated (120 min for HLM and 90 min for RLM). Following the incubation, the reaction was terminated by adding 100 µL ice-cold acetonitrile containing 75 µM of 4MUG as the internal standard (IS). The sample was allowed for protein precipitation on ice for 15 min, then vortexed shortly, and centrifuged at 15,000 rpm for 10 min at 4 °C. Supernatant was transferred into HPLC vials for HPLC analysis.
Once the initial velocity conditions had been established, the ZDV concentrations were varied to generate a saturation curve for determination of Michaelis constant (Km) and maximal velocity of reaction (Vmax) values of ZDV glucuronidation in HLM and RLM. The experiments were conducted in the absence and presence of BSA. Under optimized conditions, substrate concentrations used in incubation assay were varied from 0–5 mM of ZDV for HLM assay and 0–30 mM of ZDV for RLM assay. All assays were performed in triplicates (n = 3). The enzyme kinetic parameters (Km and Vmax) were obtained by fitting kinetic models to the experimental data using GraphPad Prism version 5.01 for Windows.
as §1

[5] = tested on: UGT nonspecific; set-up: method as in ref 26-30 (kaempferol); 26, 27, 29, 31, 38, 39 (quercetin); settings: mammalian cells; ref 26-30 (kaempferol); 26, 27, 29, 31, 38, 39 (quercetin); cited from earlier work
[6] = tested on: UGT1A1; set-up: method as in ref 26-30 (kaempferol); 35-37 (mitragynine); 26, 27, 29, 31, 38, 39 (quercetin); settings: supersomes; ref 26-30 (kaempferol); 35-37 (mitragynine); 26, 27, 29, 31, 38, 39 (quercetin); cited from earlier work
[7] = tested on: UGT1A1; set-up: method as in ref 26-30 (kaempferol); 26, 27, 29, 31, 38, 39 (quercetin); settings: mammalian cells; ref 26-30 (kaempferol); 26, 27, 29, 31, 38, 39 (quercetin); cited from earlier work
[8] = tested on: UGT1A3; set-up: method as in ref 19-24 (andrographolide); 26-30 (kaempferol); 32-34 (mangiferin); 26, 27, 29, 31, 38, 39 (quercetin); settings: supersomes; ref 19-24 (andrographolide); 26-30 (kaempferol); 32-34 (mangiferin); 26, 27, 29, 31, 38, 39 (quercetin); cited from earlier work
[9] = tested on: UGT1A6; set-up: method as in PMID 18001207, PMID 19889883, PMID 24553666, PMID 22958586, PMID 10660112; settings: mammalian cells; cited from earlier work
[10] = tested on: UGT1A9; settings: HLM, supersomes, cited from earlier work
[11] = tested on: UGT2B17; settings: supersomes; ref 31 (gallic acid); 32-34 (mangiferin); 26, 27, 29, 31, 38, 39 (quercetin); cited from earlier work
[12] = tested on: UGT nonspecific; set-up: method as in ref 19-24 (andrographolide); 35-37 (mitragynine); 26, 27, 29, 31, 38, 39 (quercetin); settings: rats; ref 19-24 (andrographolide); 35-37 (mitragynine); 26, 27, 29, 31, 38, 39 (quercetin); cited from earlier work
[13] = tested on: UGT enzymes; settings: cited from earlier work; for inhibition of UGT enzymes in HLM with 4MU as substrate (in words): 4MU nonspecific UGT substrate
[14] = tested on: UGT1A6; set-up: method as in ref 19-24 (andrographolide); 26-30 (kaempferol); 32-34 (mangiferin); 26, 27, 29, 31, 38, 39 (quercetin); settings: supersomes; ref 19-24 (andrographolide); 26-30 (kaempferol); 32-34 (mangiferin); 26, 27, 29, 31, 38, 39 (quercetin); cited from earlier work
[15] = tested on: UGT2B7; settings: cited from earlier work; for UGT2B7, in vitro study: supersomes; for effect on UGT2B7 in vitro (in words): 19 (curcumin), 37, 70 (ketamine), 19, 20, 22, 23 (andrographolide)
[16] = tested on: UGT2B10; set-up: method as in ref 26-30 (kaempferol); 26, 27, 29, 31, 38, 39 (quercetin); settings: supersomes; ref 26-30 (kaempferol); 26, 27, 29, 31, 38, 39 (quercetin); cited from earlier work
[17] = tested on: UGT1A1; set-up: method as in PMID 18001207, PMID 19889883, PMID 25008344, PMID 24553666, PMID 29574133; settings: mice; cited from earlier work
[18] = tested on: UGT2B7; set-up: method as in PMID 29425147; settings: by inhibiting UGT2B7 activity; cited from earlier work
[19] = cited from earlier work; for maximum plasma concentration: humans
[20] = tested on: UGT2B7; assay: Inhibition of ZDV glucuronidation in rat liver microsomes (RLM); settings: for IC50 at 90 min: rat
Experimental: The livers were rinsed promptly with ice-cold distilled water followed by ice-cooled 67 mM potassium phosphate buffer (pH 7.4) containing 1.15% (w/v) KCl after removal from the rats. The livers were then homogenized in three volumes of the same buffer using Potter-Elvehjem homogenizer after blotted dry and weighed. After that, the homogenate was centrifuged at 12,500× g for 20 min at 4 °C. The resultant supernatant was further centrifuged at 100,000× g for 60 min at 4 °C to obtain the microsomal pellets. Each pellet obtained was scrapped and reconstituted in 0.3 mL of 67 mM potassium phosphate buffer with 1.15% (w/v) KCl and 20% (v/v) glycerol before homogenizing them together to obtain pooled microsomes. Microsomes were then transferred into several microfuge tubes and stored at −80 °C until used.
as §2
Stock solutions for the herbal constituents were prepared at concentrations of 50 mM by dissolving them in their respective solvents. Andrographolide, arecoline, arecaidine, mangiferin and vanillin were dissolved in distilled water. […] Working solutions were prepared at concentrations of 5 mM in distilled water so that the final organic solvent concentrations in incubations were less than 2% (v/v).
(§3) Thirteen herbal constituents were screened for inhibition of ZDV glucuronidation in HLM and RLM. Screening experiments using three concentrations (1 µM, 10 µM and 100 µM) of each herbal constituent were conducted to screen for the inhibitory potential of the constituent. All incubation assays were performed in triplicate (n = 3).
The ZDVG concentration formed was quantified using the calibration curve of ZDVG. Final UGT2B7 specific activity value was expressed in pmol/min/mg protein.

[21] = molecular target: T1, UGT2B7; assay: Inhibition of ZDV glucuronidation in human liver microsomes (HLM)
Experimental: as §2
Stock solutions for the herbal constituents were prepared at concentrations of 50 mM by dissolving them in their respective solvents. […] Working solutions were prepared at concentrations of 5 mM in distilled water so that the final organic solvent concentrations in incubations were less than 2% (v/v).
as §3, §1

[22] = molecular target: T1, UGT2B7; set-up: method as in PMID 24631340; settings: non-competitive inhibition; read-out: inhibition constant (Ki) for ZDV glucuronidation in HLM; cited from earlier work
[23] = tested on: HLM; set-up: method as in PMID 25204783; settings: cited from earlier work
[24] = tested on: UGT nonspecific; set-up: method as in PMID 28479734; settings: system not given; cited from earlier work
[25] = tested on: gluthathione-S-transferases enzyme; set-up: method as in PMID 15304356; settings: in vitro; cited from earlier work
[26] = tested on: CYP3A4; set-up: method as in PMID 15270556; settings: in vitro; cited from earlier work
[27] = IC50 for inhibition of ZDV glucuronidation in HLM, human liver microsomes, ZDV as UGT2B7 probe substrate, 1% (w/v) BSA
[28] = concentration showing 50% inhibition of ZDV glucuronidation in HLM (screening), screening at 1 µM, 10 µM and 100 µM

Molecule: Cc1cn([C@H]2C[C@H](N=[N+]=[N-])[C@@H](CO)O2)c(=O)[nH]c1=O [zidovudine, 3′-Azido-3′-deoxythymidine]
- in vivo systemic clearance ([1]; for 70 kg of man): 16.8 mL/min/kg
- dose excreted as glucuronides [1]: approximately 75%
- in vivo systemic clearance ([2]; for 0.25 kg of rat): 3 mL/min/kg
- dose excreted as glucuronides [2]: ~10%
- microsomal CLint ([3]; with 1% BSA): 1.65 µL/min/mg
- microsomal CLint ([3]; without 1% BSA): 0.32 µL/min/mg
- Km at 120 min ([3]; with 1% BSA): 0.88 ± 0.05 mM
- Km at 120 min ([3]; without 1% BSA): 3.4 ± 0.7 mM
- Km at 90 min ([4]; with 1% BSA, mean ± SD): 6.77 ± 0.6 mM
- Km at 90 min ([4]; without 1% BSA, mean ± SD): 8.84 ± 1.19 mM
- microsomal CLint ([4]; with 1% BSA): 0.16 µL/min/mg
- microsomal CLint ([4]; without 1% BSA): 0.09 µL/min/mg
- Vmax ([4]; without 1% BSA, mean ± SD): 770 ± 39.82 pmol/mg/min

Molecule: O=c1c(O)c(-c2ccc(O)c(O)c2)oc2cc(O)cc(O)c12 [Quercetin, quercetin]
- UGT nonspecific, in vitro study [5]: UGT nonspecific ↑ (mammalian cells)
- UGT1A1, in vitro study [6]: UGT1A1 ↓ (supersomes)
- UGT1A1, in vitro study [7]: UGT1A1 ↑ (mammalian cells)
- UGT1A3, in vitro study [8]: UGT1A3 ↓ (supersomes)
- UGT1A6, in vitro study [9]: UGT1A6 ↑ (mammalian cells)
- UGT1A9, in vitro study ([10]; RLM): UGT1A9 ↓ (HLM, RLM, supersomes)
- UGT2B17, in vitro study [11]: UGT2B17 ↓ (supersomes)
- UGT nonspecific, in vivo/ex vivo study [12]: UGT nonspecific ↑ (rat)

Molecule: kaempferol-3-O-rutinoside [kaempferol-3-rutinoside]
- inhibition of UGT enzymes in HLM with 4MU as substrate (in words) [13]: did not significantly inhibit

Molecule: O=c1c(O)c(-c2ccc(O)cc2)oc2cc(O)cc(O)c12 [Kaempferol]
- UGT nonspecific, in vitro study [5]: UGT nonspecific ↑ (mammalian cells)
- UGT1A1, in vitro study [6]: UGT1A1 ↓ (supersomes)
- UGT1A1, in vitro study [7]: UGT1A1 ↑ (mammalian cells)
- UGT1A3, in vitro study [8]: UGT1A3 ↓ (supersomes)
- UGT1A6, in vitro study [14]: UGT1A6 ↓ (supersomes)
- UGT1A9, in vitro study ([10]; HIM): UGT1A9 ↓ (HLM, HIM, supersomes)
- UGT2B7, in vitro study ([15]; ref 26-30 (kaempferol), 35-37 (mitragynine)): UGT2B7 ↓ (supersomes)
- UGT2B10, in vitro study [16]: UGT2B10 ↓ (supersomes)
- UGT1A1, in vivo/ex vivo study [17]: UGT1A1 ↑ (mice)

Molecule: CNC1(c2ccccc2Cl)CCCCC1=O (stereo not drawn) [ketamine, reference compound]
- effect on UGT2B7 in vitro (in words) [15]: inhibit

Molecule: C[C@@H]1[C@H]2c3cc4c(cc3O[C@@]35OCOC3=CC(=O)[C@H](C[C@H]1C)[C@@H]25)OCO4 [sauchinone]
- effect on zidovudine (ZDV) concentration in mice blood (in words) [18]: elevated

Molecule: CCC1CN2CCc3c([nH]c4cccc(OC)c34)C2CC1/C(=C\OC)C(=O)OC (stereo not drawn) [mitragynine]
- inhibition of 4MU glucuronidation in HLM ([13]; at a concentration of 1 μM): approximately 30 % of control activity
- IC50 ([13]; read-out: IC50 for 4MU glucuronidation in HLM): > 1000 µM
- maximum plasma concentration ([19]; M. speciosa tea with 11 mg mitragynine for seven days then 23 mg on the eighth day): 0.105 µg/mL and 0.26 µM
- UGT nonspecific, in vivo/ex vivo study [12]: UGT nonspecific ↑ (rats)
- IC50 at 90 min ([20]; pH 7.4, IC50 for inhibition of ZDV glucuronidation in RLM, rat liver microsomes, ZDV as probe substrate, 1% (w/v) BSA): 51.2 ± 5.95 µM
- IC50 at 90 min ([20]; pH 7.4, concentration inhibiting ZDV glucuronidation in RLM higher than 50% (screening), screening at 1 µM, 10 µM and 100 µM): < 100 µM
- IC50 [21, 27]: 8.11 ± 4.48 µM
- IC50 [21, 28]: < 100 µM

Molecule: C=C1CC[C@@H]2[C@](C)(CO)[C@H](O)CC[C@@]2(C)[C@@H]1C/C=C1/C(=O)OC[C@H]1O [Andrographolide, andrographolide]
- Ki [22]: 6.1 µM
- inhibition of UGT enzymes in HLM with 4MU as substrate (in words) [13]: weak inhibition
- maximum plasma concentration ([19]; oral 20 mg of andrographolide four times a day): 1.34 µg/mL and 3.8 µM
- maximum concentration in plasma ([19]; ingestion of 32.64 mg of andrographolide three times a day): 32.41 ng/mL and 0.09 µM
- maximum concentration in plasma ([19]; ingestion of 200 mg of andrographolide three times a day): 58.6 ng/mL and 0.17 µM
- glucuronidation as a substrate in HLM (in words) [23]: glucuronidated
- effect on UGT2B7 in vitro (in words) [15]: inhibit
- UGT2B7, in vitro study ([15]; HLM): UGT2B7 ↓ (HLM, supersomes)
- UGT nonspecific, in vivo/ex vivo study [12]: UGT nonspecific ↑ (rats)
- inhibition of ZDV glucuronidation in RLM (in words) ([20]; rat liver microsomes): weak inhibition
- IC50 [21, 27]: 6.18 ± 1.27 µM
- IC50 [21, 28]: < 100 µM

Molecule: COc1cc(C=O)ccc1O [Vanillin]
- UGT nonspecific, in vitro study [24]: UGT nonspecific ↓

Molecule: C/C1=C\CC(C)(C)/C=C/C(=O)/C(C)=C/CC1 [zerumbone]
- effect on Phase II gluthathione-S-transferases enzyme (in words) [25]: induce
- effect on metabolism mediated by CYP3A4 (in words) [26]: moderately inhibit
- IC50 at 90 min ([20]; rat liver microsomes (pooled), pH 7.4, probe zidovudine (ZDV), at or below its Km, IC50 for inhibition of ZDV glucuronidation in RLM, rat liver microsomes, ZDV as probe substrate, 1% (w/v) BSA): 8.14 ± 2.12 µM
- IC50 at 90 min ([20]; rat liver microsomes (pooled), pH 7.4, probe zidovudine (ZDV), at or below its Km, concentration inhibiting ZDV glucuronidation in RLM higher than 50% (screening), screening at 1 µM, 10 µM and 100 µM): < 100 µM
- IC50 [21, 27]: 4.57 ± 0.23 µM
- IC50 [21, 28]: < 100 µM
